In BindingDB's records for PubMed 7908054 (University of Nebraska, 1994):
Several values for one entry are separate records, joined by “and”; a condition that tells them apart may be missing. Identical values can stand only once.

How the values were obtained:
[1] = target: T1, Alpha-2A adrenergic receptor (Bos taurus, UniProt Q28838)
T1 sequence (Q28838 whole entry): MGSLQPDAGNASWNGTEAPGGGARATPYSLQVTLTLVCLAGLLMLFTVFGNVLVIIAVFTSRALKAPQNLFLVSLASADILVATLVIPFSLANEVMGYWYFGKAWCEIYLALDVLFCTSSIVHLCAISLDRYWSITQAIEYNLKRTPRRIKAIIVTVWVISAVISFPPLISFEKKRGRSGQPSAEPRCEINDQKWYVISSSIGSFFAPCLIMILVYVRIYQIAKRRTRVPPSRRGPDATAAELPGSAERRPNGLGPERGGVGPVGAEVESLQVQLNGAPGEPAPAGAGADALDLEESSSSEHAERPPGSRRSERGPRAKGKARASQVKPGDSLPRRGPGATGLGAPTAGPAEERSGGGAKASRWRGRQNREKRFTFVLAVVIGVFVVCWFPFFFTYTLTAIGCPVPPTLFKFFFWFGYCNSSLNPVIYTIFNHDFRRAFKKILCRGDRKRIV

[2] = target: T2, Alpha-2A adrenergic receptor (Homo sapiens, UniProt P08913)
T2 sequence (P08913 whole entry): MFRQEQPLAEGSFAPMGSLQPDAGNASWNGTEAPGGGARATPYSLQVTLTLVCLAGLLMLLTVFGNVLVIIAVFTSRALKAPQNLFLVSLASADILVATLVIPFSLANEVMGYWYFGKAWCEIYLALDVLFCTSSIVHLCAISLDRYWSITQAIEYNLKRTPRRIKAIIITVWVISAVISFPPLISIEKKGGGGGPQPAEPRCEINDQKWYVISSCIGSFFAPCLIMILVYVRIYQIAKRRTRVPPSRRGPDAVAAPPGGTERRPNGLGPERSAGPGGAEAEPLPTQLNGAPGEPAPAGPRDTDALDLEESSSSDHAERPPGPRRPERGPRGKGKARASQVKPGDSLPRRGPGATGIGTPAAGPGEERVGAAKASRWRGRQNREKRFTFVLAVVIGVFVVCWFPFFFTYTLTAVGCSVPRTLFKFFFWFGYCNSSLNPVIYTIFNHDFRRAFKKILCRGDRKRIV

[3] = target: T3, Alpha-2C adrenergic receptor (Rattus norvegicus, UniProt P22086)
T3 sequence (P22086 whole entry): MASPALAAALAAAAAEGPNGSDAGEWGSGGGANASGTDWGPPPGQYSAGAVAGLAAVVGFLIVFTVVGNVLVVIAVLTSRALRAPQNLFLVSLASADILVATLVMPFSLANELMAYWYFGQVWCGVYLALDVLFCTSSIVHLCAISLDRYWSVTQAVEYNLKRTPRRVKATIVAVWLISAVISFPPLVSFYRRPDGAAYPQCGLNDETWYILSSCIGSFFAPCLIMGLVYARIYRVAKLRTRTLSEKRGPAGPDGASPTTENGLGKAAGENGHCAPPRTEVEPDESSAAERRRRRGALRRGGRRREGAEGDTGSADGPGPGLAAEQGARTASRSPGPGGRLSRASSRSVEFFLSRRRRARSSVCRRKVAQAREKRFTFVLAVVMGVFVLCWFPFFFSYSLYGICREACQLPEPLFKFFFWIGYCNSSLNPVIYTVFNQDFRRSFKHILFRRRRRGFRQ

[4] = target: T4, Alpha-2B adrenergic receptor (Didelphis virginiana, UniProt O77715)
T4 sequence (O77715 whole entry): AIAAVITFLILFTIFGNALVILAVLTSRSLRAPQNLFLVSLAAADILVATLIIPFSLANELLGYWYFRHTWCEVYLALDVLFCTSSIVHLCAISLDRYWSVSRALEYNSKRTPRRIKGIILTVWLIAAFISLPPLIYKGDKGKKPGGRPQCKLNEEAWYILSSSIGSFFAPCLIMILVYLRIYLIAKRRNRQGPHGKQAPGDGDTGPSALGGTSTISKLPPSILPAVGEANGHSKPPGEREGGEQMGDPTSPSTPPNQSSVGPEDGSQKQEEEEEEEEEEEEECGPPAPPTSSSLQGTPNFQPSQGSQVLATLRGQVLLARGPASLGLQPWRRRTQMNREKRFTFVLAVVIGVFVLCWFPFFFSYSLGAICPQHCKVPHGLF

SMILES	Ki [1]	Ki [2] [nM]	Ki [3]	Ki [4]
O=C1NCN(c2ccccc2)C12CCN(CC1COc3ccccc3O1)CC2 (stereo unspecified) [8-(2,3-Dihydro-benzo[1,4]dioxin-2-ylmethyl)-1-phenyl-1,3,8-triaza-spiro[4.5]decan-4-one]	9.33 nM and 12 nM	9.54	0.28 nM and 0.7 nM	0.26 nM and 0.61 nM
CN1C[C@H](Cn2ccnc2-c2ccccc2)C[C@@H]2c3cccc4[nH]c(Br)c(c34)C[C@H]21 [BAM-1303]	53.7 nM and 200 nM	0.93	6.91 nM and 8.7 nM	0.38 nM and 0.47 nM
COc1ccccc1N1CCN(CCC2C(=O)c3ccccc3C(C)(C)C2=O)CC1 (stereo unspecified) [NSC_122211]	148 nM and 324 nM	219	1.58 nM and 2.29 nM	12.9 nM and 46.8 nM
COc1cccc(OC)c1OCCNCC1Oc2ccccc2OC1c1ccccc1 (stereo unspecified) [NSC_185453]	7.58 nM and 13.5 nM	2.18	7.76 nM and 18.6 nM	0.63 nM and 1 nM
NCC(O)c1ccc(O)c(O)c1 (stereo not drawn) [Noradrenaline,(+)]	933 nM and 1050 nM			28.2 nM
CC(C)=CCOc1ccc(Cl)c2c1CCN(C)CC2 [SK&F-104078]	81.3 nM and 145 nM	39.8	49 nM and 69.2 nM	42.6 nM and 55 nM
Cc1cc(C(C)(C)C)c(O)c(C)c1CC1=NCCN1 [SMR000059324]	38 nM and 33.1 nM			15.1 nM
COc1cc2nc(N3CCN(C(=O)c4ccco4)CC3)nc(N)c2cc1OC [[3H]-Minipress]	692 nM and 1320 nM			132 nM and 117 nM
